Laboratory results from PMC9827864, “In Situ Inhibitor Synthesis and Screening by Fluorescence Polarization: An Efficient Approach for Accelerating Drug Discovery” (Angewandte Chemie (International Ed. in English), 2022).

Tests used:
[1] = tested on: C57BL/6J mouse models of anemia induced by cisplatin; assay: Improvement of anemia induced by cisplatin administration; assay type: in vivo; settings: cisplatin-induced anemia mice, po, 20 mg·kg^-1
Experimental: 5. Pharmacodynamic assay
The experimental mice (SPF, […], male) were obtained from SPF (Beijing) Biotechnology Co., Ltd (permit number: SCXK (Jing) 2019-0010). All animal related experiments were conducted under a China Pharmaceutical University (the certification of using the housing facility of laboratory animals: SYXK (Su) 2018 -0019) IACUC approved protocol in compliance with the guide for the care and use of laboratory animals (number: 202013705). […]
Representative compounds and Roxadustat were formulated in normal saline solution. […]
China Pharmaceutical University (ADVIA 2120 hematology system). […]
5.3 Improvement of anemia induced by cisplatin administration
C57BL/6J mice were treated with cisplatin ( po, 7 mg·kg-1) on days 0, 7, 14, and 28 of the experiment. On the 29th day, the animals were randomized into sham, control, and treated groups (n=5). […]
treatment anemia caused by cisplatin. The mice were treated with the compounds every alternate day for 30 days. the test sample is obtained via orbital venous plexus. The hemoglobin of samples was analyzed in the center for new drug safety evaluation and research at China Pharmaceutical University (ADVIA 2120 hematology system).

[2] = molecular target: T1, human prolyl hydroxylase 2 (PHD2) (Homo sapiens, UniProt Q9GZT9); assay: Fluorescence polarization (FP) competition assay of PHD2; settings: purified compounds, 20 nM PHD2 (181-426), 30 nM probe, Cheng-Prusoff, mean±SD, read-out: Ki, binding affinity for PHD2
T1 construct: (181-426); made in house
T1 sequence (Q9GZT9 181-426): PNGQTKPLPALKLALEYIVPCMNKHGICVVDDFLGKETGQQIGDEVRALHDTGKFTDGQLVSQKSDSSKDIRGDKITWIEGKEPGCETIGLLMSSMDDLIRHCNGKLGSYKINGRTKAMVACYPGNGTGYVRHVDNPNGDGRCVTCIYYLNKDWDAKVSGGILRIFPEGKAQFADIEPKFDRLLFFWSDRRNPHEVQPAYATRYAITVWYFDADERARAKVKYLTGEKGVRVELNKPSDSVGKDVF
Experimental: 2.1 Fluorescence polarization (FP) competition assay of PHD2 [4]
FP assays were performed using a SPARK Multi-Mode Microplate Reader (Tecan) with excitation and emission filters appropriate for the fluorophore used in the binding experiment. Fluorescence polarization experiments were performed in 384-well, flat bottom, black assay plates (#3575, Corning) in a final volume of 60 µL. The final assay buffer contained: 30 nM fluorescence Probe, 20 nM PHD2 (181-426), 10 mM HEPES, pH 7.4, 150 mM NaCl, 0.05% Tween-20, and at the 1% DMSO (except for DMSO tolerance experiments, in which different DMSO concentrations were used as indicated). All plates measured in fluorescence polarization assays were incubated for a minimum of 30 min at RT. Fluorescence polarization was measured from the top of the well with a Tecan SPARK plate reader with polarized filters and optical modules for fluorescein (λex = 485 nm ± 25 nm, λem = 535 nm ± 25 nm). The standard error of the mean (SEM) values, were calculated by dividing the sample standard deviation by the square root of the sample size and are recorded as ± values for IC 50. Dose-dependent experiments were performed in th e same manner using at least 10 concentrations of the test compounds in 3 -fold serial dilutions from 100 µM. For each assay, negative controls (equivalent to 0% displacement) contained the fluorescent ligand, PHD2 (181 -426), and 20 µL FP buffer; blank cont rols contained only the fluorescent ligand and 40 µL buffer.
The reaction mixtures were incubated at RT for 60 min, then total fluorescence and fluorescence polarization measurements wer e taken. The percentage inhibition was calculated using Equation 1, where mPfree is the signal for the free probe (blank control) and mPbound is the signal for the bound probe (negative control).
IC50s were determined for duplicate measurements by non-linear least-squares analysis using GraphPad Prism 8.0.
The Ki values of the inhibitors were calculated using the Cheng-Prusoff equation.[5] Cheng-Prusoff equation: Ki = IC50 / (1 + [L]/Kd)
The Kd value was determined using a constant concentration of probe and titrating with PHD2 protein at increasing concentrations. [L] represents the concentration of the […] used in the FP assay. […]

Structure (SMILES)	Improvement of anemia (%) [1] [%]	melting point [°C]	Ki [2] [nM]
Cc1nc(C(=O)NCC(=O)O)c(O)c2ccc(Oc3ccccc3)cc12 [Roxadustat, reference compound]	48.5		
O=C(N/N=C/c1cccc(O)c1O)c1cnc(-n2cccn2)[nH]c1=O [compound 1]		> 300	113 ± 5
O=C(N/N=C/c1cccc(O)c1O)c1cnc(-c2cccnn2)[nH]c1=O [compound 2]			68 ± 6
O=C(N/N=C/c1cccc(O)c1O)c1cnc(-c2ccccn2)[nH]c1=O [compound 3]		> 300	48 ± 4
O=C(N/N=C/c1cccc(O)c1O)c1cnc(-c2ncccn2)[nH]c1=O [compound 4]		> 300	500 ± 16
O=C(N/N=C/c1cccc(O)c1O)c1cnc(-n2cncn2)[nH]c1=O [compound 5]		> 300	548 ± 32
O=C(N/N=C/c1ccc(O)c(O)c1)c1cnc(-c2ccccn2)[nH]c1=O [compound 6]		294.7 to 295.2	2620 ± 103
O=C(N/N=C/c1cc(O)c(O)c(O)c1)c1cnc(-c2ccccn2)[nH]c1=O [compound 7]		> 300	72 ± 5
O=C(N/N=C/c1ccccc1O)c1cnc(-c2ccccn2)[nH]c1=O [compound 8]		> 300	639 ± 37
O=C(N/N=C/c1cc(O)ccc1O)c1cnc(-c2ccccn2)[nH]c1=O [compound 9]		> 300	483 ± 9
O=C(N/N=C/c1ccc(O)c(O)c1O)c1cnc(-c2ccccn2)[nH]c1=O [compound 10]		> 300	130 ± 4
O=C(O)c1ccccc1/C=N/NC(=O)c1cnc(-c2cccnn2)[nH]c1=O [compound 11]			119 ± 9
O=C(O)c1ccc(/C=N/NC(=O)c2cnc(-c3ccccn3)[nH]c2=O)cc1 [compound 12]		> 300	103 ± 4
O=C(O)c1ccc(/C=N/NC(=O)c2cnc(-c3ncccn3)[nH]c2=O)cc1 [compound 13]		> 300	1050 ± 129
O=C(O)c1cc(/C=N/NC(=O)c2cnc(-c3cccnn3)[nH]c2=O)ccc1O [compound 14]		> 300	155 ± 18
O=C(O)c1cc(/C=N/NC(=O)c2cnc(-c3ccccn3)[nH]c2=O)ccc1O [compound 15]		> 300	200 ± 8
O=C(N/N=C/c1cccc(Cl)c1O)c1cnc(-c2cccnn2)[nH]c1=O [compound 16]		> 300	394 ± 17
O=C(N/N=C/c1cccc(O)c1Cl)c1cnc(-c2ccccn2)[nH]c1=O [compound 18]		> 300	116 ± 5
